Entries after “also recorded” stand apart in the source; their conditions may differ.
Tests used:
Assay type in all cases: cell-based
[1] = system: MCF-7 human breast cancer cell lines; assay: MTT proliferation (cytotoxicity) assay on MCF-7 cells; details: for cytotoxicity against MCF-7 (in words): 10-100 µM, 24-72 h; for cytotoxicity against MCF-7 (in words) / IC50: MTT; for SI (selectivity index) MCF-7: IC50 normal cells (MCF-10A) divided by IC50 MCF-7; for IC50: Homo sapiens, MCF7
Excerpt: (§1) MCF-7 and MDA-MB-231 human breast cancer cell lines, as well as MCF-10A human normal breast cell lines, were used in this study. These cells were acquired from the American Type Culture Collection (Manassas, VA, USA). MCF-7 and MDAMB-231 cells were regularly cultured in Dulbecco’s Modified Eagle’s Medium (DMEM; Gibco, Waltham, MA, USA), and supplemented with 10% (v/v) foetal bovine serum (FBS; Gibco, Waltham, MA, USA) and 100 U/mL penicillin-streptomycin (PenStrep; Gibco, Waltham, MA, USA). MCF-10A cells were routinely cultured in DMEM/F12 (Gibco, Waltham, MA, USA) medium supplemented with 5% horse serum (Sigma-Aldrich, Burlington, MA, USA), 10 μg/mL of insulin (Sigma-Aldrich, Burlington, MA, USA), 20 ng/mL of human epidermal growth factor (hEGF; ThermoFisher, Waltham, MA, USA), 0.5 μg/mL of hydrocortisone (Sigma-Aldrich, Burlington, MA, USA) and 1 U/mL PenStrep. All cell lines were maintained in a humidified atmosphere with 5% CO2 at 37 °C.
(§2) The effects of the N-(2-cinnamylphenyl)amide products (i.e., isolated pure isomers) on MCF-7, MDA-MB-231 and MCF-10A were determined using a 3-(4,5-dimethylthiazol-2-yl)-2,5-diphenyltetrazolium bromide (MTT) proliferation assay. The cell lines were seeded in 96-well plates at a density of 1 × 10^4 cells/well and allowed to grow overnight for cell attachment. The cell lines were then treated with fresh assay medium, supplemented with increasing concentrations of tested compounds (10–100 µM) and incubated for 24–72 h at 37 °C. For this assay, the blank and negative controls used were the culture medium alone (without cells) and cells with culture medium only (untreated cells), respectively. […] At each incubation period (24, 48 and 72 h), 10 μL of MTT solution (5 mg/mL) was added to each well, and cells were further incubated for 4 h at 37 °C in 5% CO2. The solution mixture in each well was replaced with 100 μL of dimethyl sulfoxide (DMSO) to solubilise the MTT crystalline products. The optical density (O.D.) of each well was measured using a microplate reader (PowerWave-XS; Bio-Tek Instruments, Winooski, Vermont, USA) at 570 nm. The experiments were conducted in triplicate for each cell line.
(§3) The selectivity index (SI) was used to indicate the cytotoxic selectivity of the samples against cancer cells and normal cells. It was calculated from the IC50 of the samples in normal cells versus cancer cells. […] All data were analysed and presented as means standard deviation (±SD). Comparisons between each concentration of 18 samples were evaluated using Student’s t-test, where p < 0.05, p < 0.01 or p < 0.001 were considered as statistically significant relative to the untreated control cells.

[2] = system: MDA-MB-231 human breast cancer cell lines; assay: MTT proliferation (cytotoxicity) assay on MDA-MB-231 cells; details: for cytotoxicity against MDA-MB-231 (in words): 10-100 µM, 24-72 h; for cytotoxicity against MDA-MB-231 (in words) / IC50: MTT; for SI (selectivity index) MDA-MB-231: IC50 normal cells (MCF-10A) divided by IC50 MDA-MB-231; for IC50: Homo sapiens, MDA-MB-231
Excerpt: as §1, §2, §3

[3] = system: MCF-10A human normal breast cell lines; assay: MTT proliferation (cytotoxicity) assay on MCF-10A normal cells
Excerpt: as §1, §2, §3

`CCCCC(=O)Nc1ccccc1/C=C/Cc1ccc(OC)cc1` [Compound 6d, (E)-N-(2-(3-(4-Methoxyphenyl)prop-1-en-1-yl)phenyl)pentanamide] was tested, and the “cytotoxicity against MCF-7 (in words)” value [1] was “low growth inhibition”, the “SI (selectivity index) MCF-7” value ([1]; 24 h) was over 1.06 and the “SI (selectivity index) MCF-7” value ([1]; 48 h) was 1.01. The “SI (selectivity index) MCF-7” value ([1]; 72 h) was 1.41, the IC50 ([1]; 24 h incubation) was 94 ± 1.26 µM and the IC50 ([1]; 48 h incubation) was 93.3 ± 2.15 µM. For the same compound, the IC50 ([1]; 72 h incubation) was 65.8 ± 7.33 µM, the “cytotoxicity against MDA-MB-231 (in words)” value [2] was “inactive; also recorded: low growth inhibition” and the “SI (selectivity index) MDA-MB-231” value ([2]; 48 h) was under 0.94. For the same compound, the “SI (selectivity index) MDA-MB-231” value ([2]; 72 h) was under 0.93, the IC50 ([2]; 24 h incubation) was over 100 µM and the IC50 ([2]; 48 h incubation) was over 100 µM. It also gave an IC50 ([2]; 72 h incubation) of over 100 µM, an IC50 ([3]; 24 h incubation) of over 100 µM and an IC50 ([3]; 48 h incubation) of 94.4 ± 9.71 µM. For the same compound, the IC50 ([3]; 72 h incubation) was 92.9 ± 8.71 µM.

For `CCCCCC(=O)Nc1ccccc1/C=C/Cc1ccc(OC)cc1` [Compound 6e, (E)-N-(2-(3-(4-Methoxyphenyl)prop-1-en-1-yl)phenyl)hexanamide], the “cytotoxicity against MCF-7 (in words)” value [1] was “low growth inhibition”, the “SI (selectivity index) MCF-7” value ([1]; 24 h) was under 0.81 and the “SI (selectivity index) MCF-7” value ([1]; 48 h) was under 0.90. The “SI (selectivity index) MCF-7” value ([1]; 72 h) was under 0.99, the IC50 ([1]; 24 h incubation) was over 100 µM and the IC50 ([1]; 48 h incubation) was over 100 µM. For the same compound, the IC50 ([1]; 72 h incubation) was over 100 µM, the “cytotoxicity against MDA-MB-231 (in words)” value [2] was “low growth inhibition” and the “SI (selectivity index) MDA-MB-231” value ([2]; 24 h) was under 0.81. For the same compound, the “SI (selectivity index) MDA-MB-231” value ([2]; 48 h) was under 0.90, the “SI (selectivity index) MDA-MB-231” value ([2]; 72 h) was under 0.99 and the IC50 ([2]; 24 h incubation) was over 100 µM. For the same compound, the IC50 ([2]; 48 h incubation) was over 100 µM, the IC50 ([2]; 72 h incubation) was over 100 µM and the IC50 ([3]; 24 h incubation) was 80.9 ± 7.58 µM. It also gave an IC50 ([3]; 48 h incubation) of 90.1 ± 8.8 µM and an IC50 ([3]; 72 h incubation) of 98.5 ± 2.6 µM.

For `COc1ccc(C/C=C/c2ccccc2NC(=O)c2ccccc2C)cc1` [Compound 6i, (E)-N-(2-(3-(4-Methoxyphenyl)prop-1-en-1-yl)phenyl)-2-methylbenzamide], the “SI (selectivity index) MCF-7” value ([1]; 72 h) was over 1.09, the IC50 ([1]; 24 h incubation) was over 100 µM and the IC50 ([1]; 48 h incubation) was over 100 µM. The IC50 ([1]; 72 h incubation) was 91.8 ± 7.95 µM, the “SI (selectivity index) MDA-MB-231” value ([2]; 72 h) was over 1.36 and the IC50 ([2]; 24 h incubation) was over 100 µM. For the same compound, the IC50 ([2]; 48 h incubation) was over 100 µM, the IC50 ([2]; 72 h incubation) was 73.8 ± 6.92 µM and the IC50 ([3]; 24 h incubation) was over 100 µM. The IC50 ([3]; 48 h incubation) was over 100 µM and the IC50 ([3]; 72 h incubation) was over 100 µM.

With `CCCCC(=O)Nc1ccccc1C/C=C/c1ccc(OC)cc1` [Compound 7d, (E)-N-(2-(3-(4-Methoxyphenyl)allyl)phenyl)pentanamide] the “cytotoxicity against MCF-7 (in words)” value [1] was “low growth inhibition”, the “SI (selectivity index) MCF-7” value ([1]; 24 h) was over 1.70 and the “SI (selectivity index) MCF-7” value ([1]; 48 h) was 1.54. For the same compound, the “SI (selectivity index) MCF-7” value ([1]; 72 h) was 1.49, the IC50 ([1]; 24 h incubation) was 58.9 ± 1.81 µM and the IC50 ([1]; 48 h incubation) was 48.7 ± 3.46 µM. For the same compound, the IC50 ([1]; 72 h incubation) was 47.9 ± 2.96 µM, the SI value ([1]; abstract, time not stated, considered general toxicity) was under 2 and the “cytotoxicity against MDA-MB-231 (in words)” value [2] was “inactive; also recorded: low growth inhibition”. For the same compound, the “SI (selectivity index) MDA-MB-231” value ([2]; 48 h) was under 0.75, the “SI (selectivity index) MDA-MB-231” value ([2]; 72 h) was under 0.71 and the IC50 ([2]; 24 h incubation) was over 100 µM. It also gave an IC50 ([2]; 48 h incubation) of over 100 µM, an IC50 ([2]; 72 h incubation) of over 100 µM and an IC50 ([3]; 24 h incubation) of over 100 µM. It also gave an IC50 ([3]; 48 h incubation) of 75 ± 8.58 µM and an IC50 ([3]; 72 h incubation) of 71.2 ± 9.25 µM.

With `CCCCCC(=O)Nc1ccccc1C/C=C/c1ccc(OC)cc1` [Compound 7e, (E)-N-(2-(3-(4-Methoxyphenyl)allyl)phenyl)hexanamide] the “cytotoxicity against MCF-7 (in words)” value [1] was “low growth inhibition”, the “SI (selectivity index) MCF-7” value ([1]; 48 h) was under 0.70 and the “SI (selectivity index) MCF-7” value ([1]; 72 h) was 0.78. It also gave an IC50 ([1]; 24 h incubation) of over 100 µM, an IC50 ([1]; 48 h incubation) of over 100 µM and an IC50 ([1]; 72 h incubation) of 88.5 ± 2.37 µM. The “cytotoxicity against MDA-MB-231 (in words)” value [2] was “inactive; also recorded: low growth inhibition”, the “SI (selectivity index) MDA-MB-231” value ([2]; 48 h) was under 0.70 and the “SI (selectivity index) MDA-MB-231” value ([2]; 72 h) was under 0.69. It also gave an IC50 ([2]; 24 h incubation) of over 100 µM, an IC50 ([2]; 48 h incubation) of over 100 µM and an IC50 ([2]; 72 h incubation) of over 100 µM. The IC50 ([3]; 24 h incubation) was over 100 µM, the IC50 ([3]; 48 h incubation) was 70.3 ± 1.88 µM and the IC50 ([3]; 72 h incubation) was 69.18 ± 0.01 µM.

`COc1ccc(/C=C/Cc2ccccc2NC(=O)c2ccccc2C)cc1` [Compound 7i, (E)-N-(2-(3-(4-Methoxyphenyl)allyl)phenyl)-2-methylbenzamide] was tested, and the “cytotoxicity against MCF-7 (in words)” value [1] was “low growth inhibition” and the “cytotoxicity against MDA-MB-231 (in words)” value [2] was “low growth inhibition”.
